This is an account of results in publication PMC10403513, “Tasmanian devil cathelicidins exhibit anticancer activity against Devil Facial Tumour Disease (DFTD) cells” (Scientific Reports, 2023).

No end group written: not given here.

The subject of data set [1] is DFT1 1426 cells. Format: cell-based, Tasmanian devil (Sarcophilus harrisii). Particulars: for effect on cell viability (in words): 12-36 h; for concentration toxic to DFT1 1426 cells: summary in the discussion. On the procedure:
The DFT1 cell line 1426, derived from a primary DFT1 tumour, was obtained from Menzies Institute for Medical Research, University of Tasmania. The cell line was maintained in RPMI 1640 media with 2 mM L-glutamine (Gibco) supplemented with 10% AmnioMax II (Gibco), 10% heat-inactivated foetal bovine serum (FBS) and 1% penicillin/streptomycin (Sigma-Aldrich), in T75 flasks (Nunc) at 35 °C 5% CO2. Cells were passaged using trypsin–EDTA (Sigma-Aldrich) when 90% confluent.
Toxicity of seven Tasmanian devil cathelicidins against DFT1 1426 cells was determined for twofold dilutions from 500 to 15.62 µg/mL, and four different timepoints (12, 18, 24 and 36 h). Confluent DFT1 1426 cells (passage 22) were re-suspended in RPMI 1640 with 10% FBS and 10% AmnioMax II at a concentration of 5 × 10^5 cells/mL, and 100μL seeded into each well of a sterile flat-bottom 96 well plate (Corning), with individual plates for each timepoint (12, 18, 24 and 36 h). All plates were incubated for 24 h at 35 °C 5% CO2 prior to the cytotoxicity test.
At 0 h, 100 μL of each peptide dilution was then added to each plate in quadruplicate for all timepoints (12, 18, 24 and 36 h), resulting in a final peptide concentrations of 500 μg/mL, 250 μg/mL, 125 μg/mL, 62.50 μg/mL, 31.25 μg/mL and 15.62 μg/mL. […] An untreated growth control of RPMI 1640, a positive control of dimethylsulfoxide (DMSO) (15%) and sterility control of RPMI 1640 only (no cells) were also included for each time point.
For the 12 h timepoint, 10% alamarBlue was immediately added to each well of the plate after addition of the peptide. For the remaining timepoints, plates were incubated for an additional 6, 12 or 24 h after addition of the peptides, then 10% alamarBlue added to each well. For all timepoints, after the addition of alamarBlue cells were incubated for a further 12 h, resulting in a total peptide incubation period of 12, 18, 24 and 36 h. Absorbance of alamarBlue for all timepoints was determined at 570 nm and 630 nm on a Biotek 800 TS microplate reader. Cell viability was calculated according to manufacturer’s instructions and expressed as a percentage of cell survival compared to the untreated growth control.
A one-sample, one-tailed t-test was used to test for significant difference in viability between treated cells and the negative growth control. A one sample, two-tailed t-test was also conducted to ensure there was no significant difference in viability between the negative growth control and the cells treated with the solvent only. Statistical analysis was conducted in R (R Development Core Team 2021).

Data set [2] concerns DFT1 1426 cells. Briefly: RNAseq differential gene expression in peptide-treated DFT1 1426 cells. Format: cell-based, Tasmanian devil (Sarcophilus harrisii). Particulars: 500 μg/mL, 10 h, n = 3, vs vehicle control; for percentage of DE genes: of 15,548 genes. On the procedure: RNAseq was used to characterize the mechanisms underlying the anticancer activity of the peptides. Confluent DFT1 1426 cells (passage number 25) were re-suspended at a concentration of 5 × 10^5 cells/ml and 1 mL seeded into each well of a sterile flat-bottom polystyrene 12-well plate (Corning). Following incubation for 24 h at 35 °C 5% CO2, media was aspirated from the cells and replaced with 500 μL of RPMI 1640 with 2 mM L-glutamine, 10% FBS and 10% AmnioMax II. 500 μL of each 1 mg/mL peptide solution (Saha-CATH1 to 7) was then added to the plate in triplicate, to give a final peptide concentration of 500 μg/mL. […] A vehicle control was also added to the plate in triplicate.
The plate was then incubated for a further 10 h at 35 °C in 5% CO2. This incubation period was selected as the cytotoxicity assay indicated it was sublethal for most of the peptides and would maintain sufficient cell viability to extract intact RNA. Media was then aspirated from the cells, which were washed twice with Dulbecco’s phosphate buffered saline (DPBS) (Sigma-Aldrich).
Total RNA was extracted from each replicate of the peptide-treated and vehicle control cells (n = 3) using the RNeasy mini kit (Qiagen) with cell lysis directly in each well of the 12 well plate. Total RNA was quality assessed using the RNA nano 6000 kit on the Agilent Bioanalyzer with all samples displaying a RIN score between 5 and 9. In total, 24 RNA samples corresponding to three treatments per peptide (Saha-CATH1 to 7) and a vehicle control were submitted to Ramaciotti Centre for Genomics (The University of New South Wales) for sequencing. Illumina TruSeq mRNA libraries were prepared for all samples, which were sequenced as 2 × 150 bp paired-end reads across an SP flowcell on the NovaSeq6000.
Raw reads were quality assessed using FastQC v0.11.8[47], then quality and length trimmed using Trimmomatic v0.39[48] using default parameters. Trimmed reads for each treatment (n = 3) and the control (n = 3) were aligned to the Tasmanian devil reference genome v7.0 (NCBI: GCA_000189315.1[49] using STAR v2.7.8a[50]. Alignments for each treatment were summarized into gene counts using featureCounts in the subread package v1.5.1[51].
Gene counts were used as input for differential expression analysis in R[52]. Genes with less than 50 counts across all samples were removed from the analysis, as these were unlikely to be biologically relevant and lacked sufficient statistical power. Firstly, the data was normalized by trimmed mean of M values (TMM) using edgeR v3.32.1[53] to account for any composition bias between libraries and to give an effective library size for downstream analysis. Multidimensional scaling (MDS) was used to check for variation between treatments using limma v3.36.0[54]. Expression levels were then normalized using upper-quartile normalization in EDAseq v2.24.0[55] to account for differences in distribution between lanes, such as sequencing depth. Differential expression analysis was performed using voom in the limma v3.36.0 package.
(§1) Over-representation analysis of Biological Processes was conducted in clusterProfiler v3.18.1[57]. Statistical significance was adjusted for multiple comparisons using the Benjamini–Hochberg method, and terms were considered significant when p-adj < 0.05. To remove general terms, gene sets larger than 200 were removed, and the simplify function was used to remove redundant GO terms. Further pathway analysis was conducted in IPA (Qiagen)[58], using mammal as the species type and nervous system for the tissue/cell type.

The test system of data set [3] is DFT1 1426 cells. Briefly: Ingenuity Pathway Analysis (canonical pathways) of DE genes in treated DFT1 1426 cells. Particulars: DE genes of cells treated with 500 μg/mL for 10 h. Type of data set: cell-based, Tasmanian devil (Sarcophilus harrisii). On the procedure: as §1
In another data set the test system is human cell line A549. Conditions: cited from earlier work. On the procedure: Here we aimed to identify cathelicidin candidates for future development as anti-DFTD therapeutics. Four Tasmanian devil cathelicidins (Saha-CATH3, 4, 5 and 6) were toxic to DFT1 1426 cells at high concentrations: Saha-CATH3 at concentrations ≥ 62.5 µg/mL; Saha-CATH4 at 500 µg/mL; Saha-CATH5 at concentrations ≥ 125 µg/mL and Saha-CATH6 at concentrations ≥ 250 µg/mL. Previous studies have shown that two of these peptides (Saha-CATH3 and 4) are non-toxic to human cell line A549[44]. The other two (Saha-CATH5 and 6) reduced cell viability at high concentrations (500 µg/mL), resulting in 42% and 5 ...

In a further data set the test system is human red blood cells. Particulars: human red blood cells; cited from earlier work. From the text: Cathelicidins have been isolated from many vertebrate taxa[34]–[37]. However, they have undergone gene expansion in marsupials due to the need for additional protection of immunologically naïve young during development in the pouch. […] During development within the pouch, young are exposed to diverse microbial flora, some of which are pathogenic. This has likely encouraged the lineage-specific expansion of cathelicidins in marsupials, resulting in mult ...

Where [4] appears, read: pre-replication complex, RNAseq.

With “GIKHILFMAKTKLPRATCTAEIKENCDRKK [Saha-CATH1, Tasmanian devil cathelicidin mature peptide, synthesized by ChinaPeptides Co. Ltd to 95% purity]”, the “effect on cell viability (in words)” value with DFT1 1426 cells [1] (500 µg/mL, DFT1 1426 cells) is “did not reduce cell viability”. Moreover, the “percentage of DE genes” value with DFT1 1426 cells [2] is reported as “less than 1%”.
For “KREDFLDQIIRDFRNFIYQKYRRLRDEFRKLRDILSG [Saha-CATH4, Tasmanian devil cathelicidin mature peptide, synthesized by ChinaPeptides Co. Ltd to 95% purity]”, the “concentration toxic to DFT1 1426 cells” value with DFT1 1426 cells [1] is given as 500 µg/mL. Besides, in the data set on DFT1 1426 cells [2] (G1-S phase transition, RNAseq), the “Fold change, gene CCND3” value turned out to be 0.35; the “Fold change, gene CCNE1” value came out at 0.44; the “Fold change, gene CCNE2” value stood at 0.31. The “Fold change, gene E2F2” value with DFT1 1426 cells [2] (cyclin transcription factor, RNAseq) was determined as 0.28. Moreover, the “Fold change, gene IL6R” value in the data set with DFT1 1426 cells [2] (cytokine receptor, RNAseq) worked out at 5.25. Besides, in the data set with DFT1 1426 cells [2] (cytokine, RNAseq), the “Fold change, gene IL6” value worked out at 3.73. Further, the “Fold change, gene MYD88” value in the data set on DFT1 1426 cells [2] (immune signaling, RNAseq) stood at 4.15. Moreover, the “percentage of DE genes” value in the data set with DFT1 1426 cells [2] is listed as 18.75%. Moreover, in the data set with DFT1 1426 cells [2] (setting [4]), the “Fold change, gene CDC6” value worked out at 0.29; the “Fold change, gene CDC7” value was 0.38; the “Fold change, gene ORC1” value was 0.46. The “Fold change, gene RUNX1” value with DFT1 1426 cells [2] (transcription factor, RNAseq) was 2.43. In the data set with DFT1 1426 cells [3], the “IPA z-score, Cyclins and Cell Cycle Regulation” value is given as -3.317; the “IPA z-score, Th17 activation pathway” value is on record as 3.317; the “IPA z-score, cell cycle control of chromosomal replication” value is reported as -3.638. Besides, the “toxicity to human cell line A549 (in words)” value in the data set with human cell line A549 is reported as “non-toxic”.
As to KRIGLGGLIGRILDRLRRLG [Saha-CATH5], in the data set with DFT1 1426 cells [1] (500 μg/mL, 36 h, DFT1 1426 cells, alamarBlue, quadruplicate), the “decrease in cell viability compared to the growth control” value was “more than 50%”. The “cell viability (% of untreated growth control)” value in the data set on DFT1 1426 cells [1] (500 µg/mL, after 18 h, mean of quadruplicate) stood at 0%. Moreover, in the data set with DFT1 1426 cells [1] (36 h), the “cytotoxic concentration (cell viability reduced by more than 50%)” value is recorded as ≥ 125 µg/mL. In addition, the “concentration toxic to DFT1 1426 cells” value in the data set on DFT1 1426 cells [1] is listed as ≥ 125 µg/mL. In the data set on DFT1 1426 cells [2] (RNAseq), the “Fold change (FC), gene ERBB3” value turned out to be 0.34. Moreover, in the data set with DFT1 1426 cells [2] (G1-S phase transition, RNAseq), the “Fold change, gene CCND1” value stood at 0.52; the “Fold change, gene CCNE1” value is 0.37; the “Fold change, gene CCNE2” value amounted to 0.30. Moreover, the “percentage of DE genes” value in the data set with DFT1 1426 cells [2] was determined as 74.05%. Besides, in the data set on DFT1 1426 cells [2] (setting [4]), the “Fold change, gene CDC6” value is recorded as 0.39; the “Fold change, gene CDC45” value is on record as 0.42; the “Fold change, gene ORC1” value was determined as 0.54. Further, in the data set on DFT1 1426 cells [3], the “IPA z-score, ERBB2-ERBB3” value is recorded as -4.439; the “IPA z-score, ERBB4 signaling” value is given as -5.425; the “IPA z-score, ERBB signaling” value was -6.068; the “IPA z-score, Hippo signalling” value was found to be 0.898. The “IPA z-score, cell cycle control of chromosomal replication” value in the data set with DFT1 1426 cells [3] is -3.780. In addition, in the data set with human cell line A549 (500 µg/mL), the “cell survival of human cell line A549” value is 42%. The “concentration at which moderately haemolytic” value in the data set with human red blood cells is given as “above 250 μg/mL”.
With “STILEDPGKIRERRDIGEEPIQKKQKMYRDQMQ [Saha-CATH7, Tasmanian devil cathelicidin mature peptide, synthesized by ChinaPeptides Co. Ltd to 95% purity]”, the “effect on cell viability (in words)” value in the data set with DFT1 1426 cells [1] (500 µg/mL, DFT1 1426 cells) is “did not reduce cell viability”. For the same sequence, in the data set with DFT1 1426 cells [2], the “percentage of DE genes” value was “less than 1%”. In addition, in the data set on DFT1 1426 cells [2] (out of a total of 15,548 genes), the “number of differentially expressed (DE) genes” value turned out to be 0.
Take “TFKRKNGSRKNGHRPGGYSLIALGNKKVLKAPYMESI [Saha-CATH2, Tasmanian devil cathelicidin mature peptide, synthesized by ChinaPeptides Co. Ltd to 95% purity]”: the “effect on cell viability (in words)” value in the data set with DFT1 1426 cells [1] (500 µg/mL, DFT1 1426 cells) is listed as “did not reduce cell viability”. Moreover, the “percentage of DE genes” value in the data set with DFT1 1426 cells [2] is “less than 1%”.
